Laboratory results taken from patent US11759461B2, “Small molecule inhibitors of cancer stem cells and mesenchymal cancer types” (The Scripps Research Institute, priority 2017, dated 2023).
Read-outs that look alike come from different tables or passages of the source.

Legend:
[1] = tested on: SNAIL-HMLE, MDA-MB-231, and SUM159; experiment: Growth inhibition of additional mesenchymal breast cancer cell lines; type: cell-based, human; conditions: MDA-MB-231, SUM159, express FOXC2 from endogenous locus
From the text: (§1) The propagation conditions and generation of FOXC2-HMLER, HMLER, SNAIL-HMLER, SNAIL-HMLE, and SUM159 cells have been described previously (Mani (2008)). MCF-7, HepG2, HCT116, and MDA-MB-231 cells were from ATCC and maintained in DMEM medium (Corning) supplemented with 10% FBS (Corning) with Anti-anti (Gibco). The soft tissue sarcoma cell line panel was purchased from ATCC (TCP-1019) and maintained in the recommended medium for each cell type. HUVEC cells (pooled donor) were maintained in EBM-2 medium (both from Lonza Walkersville). Primary human lung fibroblasts were maintained in Fibroblast Medium (both from Sciencell Research Laboratories). For cell growth experiments, HLFs were grown in DMEM supplemented with 2% FBS and Anti-anti. For all experiments, primary human cells were used at a passage no greater than 4.
For high throughput screening, FOXC2-HMLER and HMLER cells were plated at 10^3 cells per well in white 384-well plates in 50 μL of MEGM medium (Lonza). Cells were allowed to attach for one hour before compound was transferred to each well as a DMSO solution using a 100 nL pintool head affixed to a PerkinElmer FX instrument. After 72-hour incubation, 30 μL of a Cell Titer Glo solution (diluted 1:6 in water, Promega) was dispensed into each well and luminance values were recorded using an Envision plate reader. […]

[2] = tested on: STS cell lines (HT 1080, SW684, RD, GCT, SW872, SW982); experiment: Anti-proliferative activity against soft tissue sarcoma cell line panel; type: cell-based
From the text: as §1
For high throughput screening, FOXC2-HMLER and HMLER cells were plated at 10^3 cells per well in white 384-well plates in 50 μL of MEGM medium (Lonza). Cells were allowed to attach for one hour before compound was transferred to each well as a DMSO solution using a 100 nL pintool head affixed to a PerkinElmer FX instrument. After 72-hour incubation, 30 μL of a Cell Titer Glo solution (diluted 1:6 in water, Promega) was dispensed into each well and luminance values were recorded using an Envision plate reader. […] Selected hit compounds were reordered from ChemDiv and tested for selective toxicity in 10-point response assays as above. All other miniaturized, selective viability experiments were performed as above using the indicated growth medium.
The anti-proliferative activity of Compound 1 was assessed against a selection of soft tissue sarcomas (STS), which collectively refers to a broad grouping of over 50 subtypes of connective tissue derived cancers for which targeted therapies are lacking (Zambo (2014)). […]
A panel of 6 STS cell lines were evaluated, which cell lines included the histological subtypes of fibrosarcoma (HT 1080, SW684), rhabdomyosarcoma (RD), fibrous histiocytoma (GCT), liposarcoma (SW872), and synovial sarcoma (SW982). […]

[3] = tested on: FOXC2-expressing HMLER cells; experiment: Cell Titer Glo viability of FOXC2-HMLER cells (high throughput screen and 10-point response); type: cell-based; conditions: Homo sapiens
Method in brief: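 Viability after 72 h compound exposure was measured as Cell Titer Glo luminescence. FOXC2-HMLER and parental HMLER cells, 1,000 per well in MEGM medium, were dosed 1 h after plating; screening concentration was 2 μM.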

SMILES: Clc1cccc(N2CCN(c3cnnc4c(Cl)cccc34)CC2)c1 [Compound 1, 8-chloro-4-(4-(3-chlorophenyl)piperazin-1-yl)cinnoline]
- growth of additional mesenchymal breast cancer cell lines [1]: inhibit the growth
- IC50 ([2]; Homo sapiens, SW872 liposarcoma cell line, read-out: IC50, SW872 cells): 440 nM
- multinucleation phenotype in STS cell lines ([2]; all STS cell lines, 24-hour treatment): robust multinucleation phenotype
- IC50 ([2]; panel of 6 STS cell lines, read-out: IC50 values, growth of all STS cell lines): 440 to 1310 nM
- IC50 ([3]; 72-hour incubation, read-out: FOXC2-HMLER IC50): 234 nM
- IC50 ([3]; scored relative to parent compound 1, 72 hours, read-out: Activity Score, inhibition of FOXC2-expressing HMLER cells by Formula I compounds): < 1000 nM
